Measurements as given in article PMC13397332 (Biochimica et biophysica acta. Proteins and proteomics, 2025).

Biological target: T1, OrnR (STM OrnR, ornithine racemase) (Salmonella enterica, UniProt Q8ZNC6)
T1 sequence (Q8ZNC6 1-367): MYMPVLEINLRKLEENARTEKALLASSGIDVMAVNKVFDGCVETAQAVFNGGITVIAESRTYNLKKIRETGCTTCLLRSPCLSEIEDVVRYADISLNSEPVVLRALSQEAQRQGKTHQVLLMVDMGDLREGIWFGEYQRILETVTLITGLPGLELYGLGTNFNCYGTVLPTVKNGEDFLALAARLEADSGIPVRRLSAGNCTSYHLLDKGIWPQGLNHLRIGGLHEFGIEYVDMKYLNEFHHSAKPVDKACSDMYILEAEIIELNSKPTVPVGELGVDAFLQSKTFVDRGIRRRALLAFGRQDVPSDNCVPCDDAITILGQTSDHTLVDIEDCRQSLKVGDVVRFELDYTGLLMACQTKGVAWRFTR
Details: read-out: S0.5; D to L direction, pH 9.2, 37 °C, 0.8 mM PLP; sigmoid, Hill fit

Km: 12.8 ± 2.7 mM
Compound: NCCC[C@@H](N)C(=O)O [D-ornithine]
